Source: patent publication US12383545B1, “Treatment of migraine” (priority 2018, dated 2025)

System: patients with migraine (4 to 14 migraine/probable migraine headache days)
Assay: Example 5: randomized double-blind placebo-controlled 12-week dose-regimen study (QD and BID), migraine/probable migraine (MPM) headache days efficacy
Assay type: in vivo, human
Conditions: mITT population
Protocol: In a multicenter, randomized, double-blind, placebo-controlled, parallel-group study designed to evaluate the efficacy, safety, and tolerability of multiple doses and doses regimens of atogepant for the prevention of migraine. The patients were randomized (2:1:2:1:2:1) to 1 of 6 treatment groups: placebo, atogepant 10 mg QD, atogepant 30 mg QD, atogepant 30 mg BID, atogepant 60 mg QD, and atogepant 60 mg BID.
This study consisted of a 4-week screening and baseline period and a 12-week double-blind treatment period, which was followed by a 4-week safety follow-up period. Total study duration is 20-weeks.
To be randomized, eligible patients had to be 18 to 75 years of age (inclusive), have a history of migraine with or without aura for at least 1 year consistent with a diagnosis according to the International Classification of Headache Disorders criteria, 3rd edition, beta version, have experienced 4 to 14 migraine/probable migraine headache days and <15 headache days in the 28-day baseline period. Patients who had clinically significant hematologic, endocrine, cardiovascular, cerebrovascular, pulmonary, renal, hepatic, gastrointestinal, or neurologic disease were excluded from the study.
A total of 834 patients were randomized to double-blind treatment (ITT population), and 825 patients took at least 1 dose of double-blind IP (safety population). […] The primary efficacy variable was the change from baseline in mean monthly migraine/probable migraine headache days across the 12-week treatment period. The secondary efficacy variables were the change from baseline in mean monthly headache days across the 12-week treatment period, proportion of patients with at least a 50% reduction in mean monthly migraine/probable migraine headache days across the 12-week treatment period, and the change from baseline in mean monthly acute medication use days across the 12-week treatment period.

[1] = Weeks 1-4, Atogepant 60 mg BID (N = 87)
[2] = Weeks 1-4, Atogepant 60 mg QD (N = 177)
[3] = Weeks 5-8, Atogepant 10 mg QD (N = 92)
[4] = Weeks 5-8, Atogepant 30 mg BID (N = 79)
[5] = Weeks 5-8, Atogepant 30 mg QD (N = 182)
[6] = Weeks 5-8, Atogepant 60 mg BID (N = 87)
[7] = Weeks 5-8, Atogepant 60 mg QD (N = 177)
[8] = Weeks 9-12, Atogepant 10 mg QD (N = 92)
[9] = Weeks 9-12, Atogepant 30 mg BID (N = 79)
[10] = Weeks 9-12, Atogepant 30 mg QD (N = 182)
[11] = Weeks 9-12, Atogepant 60 mg BID (N = 87)
[12] = Weeks 9-12, Atogepant 60 mg QD (N = 177)

## C[C@@H]1[C@H](c2c(F)ccc(F)c2F)C[C@H](NC(=O)c2cnc3c(c2)C[C@@]2(C3)C(=O)Nc3ncccc32)C(=O)N1CC(F)(F)F [atogepant]
[1]
  Non-responders (at least 100% reduction in mean monthly MPM headache days not met), (%): (79.3) %
  Non-responders (at least 100% reduction in mean monthly MPM headache days not met), n: 69
  Odds ratio vs. Placebo, at least 100% reduction in mean monthly MPM headache days: 7.43
  Responders (at least 100% reduction in mean monthly MPM headache days), (%): (20.7) %
  Responders (at least 100% reduction in mean monthly MPM headache days), n: 18
[2]
  Non-responders (at least 100% reduction in mean monthly MPM headache days not met), (%): (85.2) %
  Non-responders (at least 100% reduction in mean monthly MPM headache days not met), n: 150
  Odds ratio vs. Placebo, at least 100% reduction in mean monthly MPM headache days: 4.94
  Responders (at least 100% reduction in mean monthly MPM headache days), (%): (14.8) %
  Responders (at least 100% reduction in mean monthly MPM headache days), n: 26
[3]
  Non-responders (at least 100% reduction in mean monthly MPM headache days not met), (%): (79.1) %
  Non-responders (at least 100% reduction in mean monthly MPM headache days not met), n: 68
  Odds ratio vs. Placebo, at least 100% reduction in mean monthly MPM headache days: 2.34
  Responders (at least 100% reduction in mean monthly MPM headache days), (%): (20.9) %
  Responders (at least 100% reduction in mean monthly MPM headache days), n: 18
[4]
  Non-responders (at least 100% reduction in mean monthly MPM headache days not met), (%): (80.3) %
  Non-responders (at least 100% reduction in mean monthly MPM headache days not met), n: 57
  Odds ratio vs. Placebo, at least 100% reduction in mean monthly MPM headache days: 2.26
  Responders (at least 100% reduction in mean monthly MPM headache days), (%): (19.7) %
  Responders (at least 100% reduction in mean monthly MPM headache days), n: 14
[5]
  Non-responders (at least 100% reduction in mean monthly MPM headache days not met), (%): (73.3) %
  Non-responders (at least 100% reduction in mean monthly MPM headache days not met), n: 121
  Odds ratio vs. Placebo, at least 100% reduction in mean monthly MPM headache days: 3.26
  Responders (at least 100% reduction in mean monthly MPM headache days), (%): (26.7) %
  Responders (at least 100% reduction in mean monthly MPM headache days), n: 44
[6]
  Non-responders (at least 100% reduction in mean monthly MPM headache days not met), (%): (73.8) %
  Non-responders (at least 100% reduction in mean monthly MPM headache days not met), n: 59
  Odds ratio vs. Placebo, at least 100% reduction in mean monthly MPM headache days: 3.25
  Responders (at least 100% reduction in mean monthly MPM headache days), (%): (26.3) %
  Responders (at least 100% reduction in mean monthly MPM headache days), n: 21
[7]
  Non-responders (at least 100% reduction in mean monthly MPM headache days not met), (%): (79.9) %
  Non-responders (at least 100% reduction in mean monthly MPM headache days not met), n: 135
  Odds ratio vs. Placebo, at least 100% reduction in mean monthly MPM headache days: 2.31
  Responders (at least 100% reduction in mean monthly MPM headache days), (%): (20.1) %
  Responders (at least 100% reduction in mean monthly MPM headache days), n: 34
[8]
  Non-responders (at least 100% reduction in mean monthly MPM headache days not met), (%): (79.8) %
  Non-responders (at least 100% reduction in mean monthly MPM headache days not met), n: 67
  Odds ratio vs. Placebo, at least 100% reduction in mean monthly MPM headache days: 1.43
  Responders (at least 100% reduction in mean monthly MPM headache days), (%): (20.02) %
  Responders (at least 100% reduction in mean monthly MPM headache days), n: 17
[9]
  Non-responders (at least 100% reduction in mean monthly MPM headache days not met), (%): (71.0) %
  Non-responders (at least 100% reduction in mean monthly MPM headache days not met), n: 49
  Odds ratio vs. Placebo, at least 100% reduction in mean monthly MPM headache days: 2.42
  Responders (at least 100% reduction in mean monthly MPM headache days), (%): (29.0) %
  Responders (at least 100% reduction in mean monthly MPM headache days), n: 20
[10]
  Non-responders (at least 100% reduction in mean monthly MPM headache days not met), (%): (77.0) %
  Non-responders (at least 100% reduction in mean monthly MPM headache days not met), n: 117
  Odds ratio vs. Placebo, at least 100% reduction in mean monthly MPM headache days: 1.72
  Responders (at least 100% reduction in mean monthly MPM headache days), (%): (23.0) %
  Responders (at least 100% reduction in mean monthly MPM headache days), n: 35
[11]
  Non-responders (at least 100% reduction in mean monthly MPM headache days not met), (%): (67.6) %
  Non-responders (at least 100% reduction in mean monthly MPM headache days not met), n: 48
  Odds ratio vs. Placebo, at least 100% reduction in mean monthly MPM headache days: 2.59
  Responders (at least 100% reduction in mean monthly MPM headache days), (%): (32.4) %
  Responders (at least 100% reduction in mean monthly MPM headache days), n: 23
[12]
  Non-responders (at least 100% reduction in mean monthly MPM headache days not met), (%): (73.2) %
  Non-responders (at least 100% reduction in mean monthly MPM headache days not met), n: 120
  Odds ratio vs. Placebo, at least 100% reduction in mean monthly MPM headache days: 2.07
  Responders (at least 100% reduction in mean monthly MPM headache days), (%): (26.8) %
  Responders (at least 100% reduction in mean monthly MPM headache days), n: 44
